Read-outs that look alike come from different tables or passages of the source. Values belong to the molecule of their own block, whether it stands above or below them.
What was measured:
Assay in all cases: Ras GTP binding domain inhibition assay (Cy3-GTP/Cy5-GTP competition)
KRas G12D mutant = molecular target: T1, KRas G12D mutant (Homo sapiens, UniProt P01116, G12D); conditions: for IC50: cell-free, 100 nM Cy3-GTP or Cy5-GTP
T1 construct: fused on or other part: His tag, used for capture on nickel-coated plates
Method: (§1) The following method was developed as specific assay for the following proteins: KRas wild type, KRas Q61H mutant, KRas G12C mutant, KRas G12D mutant, HRas wild type, Rac-1, and Rho-A.
(§2) • 25 mM Tris-HCl, pH 7.4 • 27 mM KCl • 137 mM NaCl • 1 mM MgCl2 • 1 mM DTT
(§3) • 50 mM Tris-HCl, pH 7.0 • 1 mM MgCl2 • 1 mM DTT
(§4) The small GTPases proteins: KRas wild type. KRas Q61H mutant, KRas G12C mutant, KRas G12D mutants, HRas wild type, Rac-1, and Rho-A were expressed as His-tagged proteins. In addition, the Guanosine nucleotide Exchange Factor (GEF) Sos protein (residues 556-1049) was expressed as a His-tagged protein. In cells, the guanine nucleotide exchange factor Sos protein promotes activation of Ras proteins by stimulating an exchange of GDP for GTP. The inclusion of Sos to the Ras GTP binding domain inhibition assay may be considered as an alternative representation of physiological cellular conditions for evaluating the inhibitory activity of some of the tested small molecules.
(§5) For the assay, all purified small GTPases proteins were diluted in Buffer-I or Buffer-II to a final concentration of 10-30 μg/mL. 200 μL of each diluted protein was added to a nickel-coated 96-well plate and incubated overnight at 4° C. Then the protein solution was discarded and 200 μL of Buffer-I or Buffer-II was added to each well in the presence of 1% DMSO. Compounds to be tested were added to the protein-coated wells at final concentration of 20 μM, and incubated for 3 hours at room temperature with and without […] of Sos added to the final hour of the incubation. When performing IC50 measurements a serial dilution of all tested concentrations was added. Then Cy3-GTP or Cy5-GTP was added to each well to a final concentration of 100 nM. The labeled GTP was incubated for 45 minutes at room temperature. Following GTP incubation, wells were washed 3× in Buffer-I or Buffer-II and 200 μL of Buffer-I or Buffer-II was added to each well. Following washes, the amount of bound labeled-GTP was measured using a SpectraMax M3 (Molecular Devices).

KRas Q61H mutant = tested on: KRas Q61H mutant; design: species or system human; conditions: 20 μM; for KRas Q61H mutant + SOS: % inh.: with SOS (Table 7A); for KRas Q61H mutant: % inh.: without SOS (Table 7A)
Method: as §1, §2, §3, §4, §5

KRas wild type = tested on: KRas wild type; design: species or system human; conditions: 20 μM; for KRas wild type + SOS: % inh.: with SOS (Table 7A); for KRas wild type % inh.: without SOS (Table 7A)
Method: as §1, §2, §3, §4, §5

[1] = at 20 μM, with SOS, read-out: KRas G12D mutant + SOS: % inh.
[2] = at 20 μM, without SOS, read-out: KRas G12D mutant: % inh.
[3] = 20 μM, with SOS (Table 7A), read-out: KRas G12D mutant + SOS: % inh.
[4] = 20 μM, without SOS (Table 7A), read-out: KRas G12D mutant: % inh.

Compound: COc1cccc(-c2sc3nc(-c4nccn4C)nc(N[C@@H]4CC[C@H](OC)C4)c3c2C)c1F [drawing 1029]
- inhibition at 20 µM (KRas G12D mutant; [1]): 51 to 75%
- inhibition at 20 µM (KRas G12D mutant; [2]): 51 to 75%

Compound: COc1c(F)cccc1-c1sc2nc(-c3nccn3C)nc(N[C@@H]3CC[C@H](OC)C3)c2c1-c1ccccc1 [drawing 887]
- KRas Q61H mutant + SOS: % inh. (KRas Q61H mutant): D (76-100% inhibition)
- KRas Q61H mutant: % inh. (KRas Q61H mutant): D (76-100% inhibition)
- KRas wild type + SOS: % inh. (KRas wild type): D (76-100% inhibition)
- KRas wild type % inh. (KRas wild type): D (76-100% inhibition)
- inhibition at 20 µM (KRas G12D mutant; [3]): 76 to 100%
- inhibition at 20 µM (KRas G12D mutant; [4]): 76 to 100%

Compound: CO[C@H]1CC[C@@H](Nc2nc(-c3nccn3C)nc3sc(-c4cccc5[nH]ncc45)c(-c4ccccc4)c23)C1 [drawing 889]
- KRas Q61H mutant + SOS: % inh. (KRas Q61H mutant): D (76-100% inhibition)
- KRas Q61H mutant: % inh. (KRas Q61H mutant): C (51-75% inhibition)
- KRas wild type + SOS: % inh. (KRas wild type): D (76-100% inhibition)
- KRas wild type % inh. (KRas wild type): C (51-75% inhibition)
- inhibition at 20 µM (KRas G12D mutant; [3]): 51 to 75%
- inhibition at 20 µM (KRas G12D mutant; [4]): 51 to 75%

Compound: COc1c(F)cccc1-c1sc2nc(-c3nccn3C)nc(N[C@@H]3CC[C@H](OC)C3)c2c1-c1ccccc1 [drawing 1022]
- inhibition at 20 µM (KRas G12D mutant; [1]): 76 to 100%
- inhibition at 20 µM (KRas G12D mutant; [2]): 76 to 100%

Compound: COc1cccc(-c2sc3nc(-c4nccn4C)nc(N[C@@H]4CC[C@H](OC)C4)c3c2C)c1F [drawing 894]
- KRas Q61H mutant + SOS: % inh. (KRas Q61H mutant): D (76-100% inhibition)
- KRas Q61H mutant: % inh. (KRas Q61H mutant): C (51-75% inhibition)
- KRas wild type + SOS: % inh. (KRas wild type): D (76-100% inhibition)
- KRas wild type % inh. (KRas wild type): C (51-75% inhibition)
- inhibition at 20 µM (KRas G12D mutant; [3]): 51 to 75%
- inhibition at 20 µM (KRas G12D mutant; [4]): 51 to 75%

Compound: COc1cccc(-c2sc3nc(-c4nccn4C)nc(N[C@@H]4CC[C@H](C=O)C4)c3c2-c2ccccc2)c1F (racemic)
- inhibition at 20 µM (KRas G12D mutant; [1]): 51 to 75%
- inhibition at 20 µM (KRas G12D mutant; [2]): 51 to 75%

Compound: CO[C@H]1CC[C@@H](Nc2nc(-c3nccn3C)nc3sc(-c4cccc5[nH]ncc45)c(-c4ccccc4)c23)C1 [drawing 1024]
- inhibition at 20 µM (KRas G12D mutant; [1]): 51 to 75%
- inhibition at 20 µM (KRas G12D mutant; [2]): 51 to 75%

Further lines, results first:

- IC50 (KRas G12D mutant): 5 to 10 µM
Compound: CO[C@H]1C[C@@H](Nc2nc(-c3nccn3C)nc3sc(C(=O)NC(C)C)c(-c4ccccc4)c23)C1 [drawing 1068]

- IC50 (KRas G12D mutant): 5 to 10 µM
Compound: Cc1c(-c2ccn(C)n2)sc2nc(-c3nccn3C)nc(NCCCS(C)(=O)=O)c12 [drawing 1064]

- IC50 (KRas G12D mutant): 5 to 10 µM
Compound: Cc1c(-c2ccn(C)n2)sc2nc(-c3nccn3C)nc(NCCCC(=O)N(C)C)c12 [drawing 1065]

- IC50 (KRas G12D mutant): 5 to 10 µM
Compound: CO[C@H]1CC[C@@H](Nc2nc(-c3nccn3C)nc3sc(C(=O)NC(C)C)c(-c4ccccc4)c23)C1 [drawing 1072]

- IC50 (KRas G12D mutant): 5 to 10 µM
Compound: COCCNC(=O)c1sc2nc(-c3nccn3C)nc(N[C@@H]3CC[C@H](OC)C3)c2c1-c1ccccc1 [drawing 1073]

- IC50 (KRas G12D mutant): 5 to 10 µM
Compound: CO[C@H]1C[C@@H](Nc2nc(-c3nccn3C)nc3sc(C(=O)N4CCOCC4)c(-c4ccccc4)c23)C1 [drawing 1070]

- IC50 (KRas G12D mutant): 5 to 10 µM
Compound: CO[C@H]1CC[C@@H](Nc2nc(-c3nccn3C)nc3sc(C(=O)N4CCOCC4)c(-c4ccccc4)c23)C1 [drawing 1075]

- IC50 (KRas G12D mutant): 5 to 10 µM
Compound: Cc1c(-c2ccn(C)n2)sc2nc(-c3nccn3C)nc(NCCOC(=O)N(C)C)c12 [drawing 1066]

From patent publication US20250296938A1, “Compounds that Interact with the Ras Superfamily for the Treatment of Cancers, Inflammatory Diseases, Rasopathies, and Fibrotic Disease” (SHY Therapeutics, LLC, priority 2018, published 2025)
